Source: PubChem BioAssay AID2060909 (Molecular Pharmacology Branch, DTP, NCI, 2025)

System: 362531-283-R-J2-PDC complex spheroid viability
Assay: Anticancer human tumor 362531-283-R-J2-PDC patient-derived colon adenocarcinoma cell line growth inhibition [RAS]
Conditions: for IC50: curve of first compound; for viability, T/C: stronger effect = lower value
Outline: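 Multi-cell-type spheroids: tumor cells plus HUVEC endothelial cells and mesenchymal stem cells. RAS-pathway inhibitors were combined with targeted agents, each dosed in half-log steps down from clinical Cmax, or from 10 microM when Cmax was unknown.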

[1] = second compound 0.000949 µM, first compound 0.00316 µM
[2] = second compound 0.000949 µM, first compound 0.01 µM
[3] = second compound 0.000949 µM, first compound 0.0316 µM
[4] = second compound 0.000949 µM, first compound 0.1 µM
[5] = second compound 0.000949 µM, first compound 0.316 µM
[6] = second compound 0.000949 µM, first compound 1 µM
[7] = second compound 0.003 µM, first compound 0.00316 µM
[8] = second compound 0.003 µM, first compound 0.01 µM
[9] = second compound 0.003 µM, first compound 0.0316 µM
[10] = second compound 0.003 µM, first compound 0.1 µM
[11] = second compound 0.003 µM, first compound 0.316 µM
[12] = second compound 0.003 µM, first compound 1 µM
[13] = second compound 0.00949 µM, first compound 0.00316 µM
[14] = second compound 0.00949 µM, first compound 0.01 µM
[15] = second compound 0.00949 µM, first compound 0.0316 µM
[16] = second compound 0.00949 µM, first compound 0.1 µM
[17] = second compound 0.00949 µM, first compound 0.316 µM
[18] = second compound 0.00949 µM, first compound 1 µM
[19] = second compound 0.03 µM, first compound 0.00316 µM
[20] = second compound 0.03 µM, first compound 0.01 µM
[21] = second compound 0.03 µM, first compound 0.0316 µM
[22] = second compound 0.03 µM, first compound 0.1 µM
[23] = second compound 0.03 µM, first compound 0.316 µM
[24] = second compound 0.03 µM, first compound 1 µM
[25] = second compound 0.0949 µM, first compound 0.00316 µM
[26] = second compound 0.0949 µM, first compound 0.01 µM
[27] = second compound 0.0949 µM, first compound 0.0316 µM
[28] = second compound 0.0949 µM, first compound 0.1 µM
[29] = second compound 0.0949 µM, first compound 0.316 µM
[30] = second compound 0.0949 µM, first compound 1 µM
[31] = second compound 0.3 µM, first compound 0.00316 µM
[32] = second compound 0.3 µM, first compound 0.01 µM
[33] = second compound 0.3 µM, first compound 0.0316 µM
[34] = second compound 0.3 µM, first compound 0.1 µM
[35] = second compound 0.3 µM, first compound 0.316 µM
[36] = second compound 0.3 µM, first compound 1 µM
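Also: spheroids exposed to the agents for 7 days before readout.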
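For viability, T/C in this document: luminescence viability as percent of DMSO vehicle control wells.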

## CCC(CC)c1cc(NC2CCC(N)C2)n2nccc2n1 (stereo unspecified) + C=CC(=O)N1CCN(c2nc(OCC3CCCN3C)nc3c(F)c(-c4nc(N)cc(C)c4C(F)(F)F)c(Cl)cc23)C(C)C1
Second compound 0.00316 µM
  IC50: 4140 nM
Second compound 0.01 µM
  IC50: 4690 nM
Second compound 0.0316 µM
  IC50: 5540 nM
Second compound 0.1 µM
  IC50: 4920 nM
Second compound 0.316 µM
  IC50: 4660 nM
Second compound 1 µM
  IC50: 4540 nM
Second compound 0.00316 µM, first compound 0.0316 µM
  viability, T/C: 99.6%
Second compound 0.00316 µM, first compound 0.1 µM
  viability, T/C: 100%
Second compound 0.00316 µM, first compound 0.316 µM
  viability, T/C: 104%
Second compound 0.00316 µM, first compound 1 µM
  viability, T/C: 95.2%
Second compound 0.00316 µM, first compound 3.16 µM
  viability, T/C: 64.2%
Second compound 0.00316 µM, first compound 10 µM
  viability, T/C: 3.95%
Second compound 0.01 µM, first compound 0.0316 µM
  viability, T/C: 102%
Second compound 0.01 µM, first compound 0.1 µM
  viability, T/C: 108%
Second compound 0.01 µM, first compound 0.316 µM
  viability, T/C: 106%
Second compound 0.01 µM, first compound 1 µM
  viability, T/C: 102%
Second compound 0.01 µM, first compound 3.16 µM
  viability, T/C: 73.5%
Second compound 0.01 µM, first compound 10 µM
  viability, T/C: 5.05%
Second compound 0.0316 µM, first compound 0.0316 µM
  viability, T/C: 100%
Second compound 0.0316 µM, first compound 0.1 µM
  viability, T/C: 115%
Second compound 0.0316 µM, first compound 0.316 µM
  viability, T/C: 100%
Second compound 0.0316 µM, first compound 1 µM
  viability, T/C: 103%
Second compound 0.0316 µM, first compound 3.16 µM
  viability, T/C: 92.5%
Second compound 0.0316 µM, first compound 10 µM
  viability, T/C: 5.29%
Second compound 0.1 µM, first compound 0.0316 µM
  viability, T/C: 102%
Second compound 0.1 µM, first compound 0.1 µM
  viability, T/C: 113%
Second compound 0.1 µM, first compound 0.316 µM
  viability, T/C: 102%
Second compound 0.1 µM, first compound 1 µM
  viability, T/C: 107%
Second compound 0.1 µM, first compound 3.16 µM
  viability, T/C: 79.1%
Second compound 0.1 µM, first compound 10 µM
  viability, T/C: 3.6%
Second compound 0.316 µM, first compound 0.0316 µM
  viability, T/C: 97%
Second compound 0.316 µM, first compound 0.1 µM
  viability, T/C: 97.2%
Second compound 0.316 µM, first compound 0.316 µM
  viability, T/C: 104%
Second compound 0.316 µM, first compound 1 µM
  viability, T/C: 109%
Second compound 0.316 µM, first compound 3.16 µM
  viability, T/C: 73.3%
Second compound 0.316 µM, first compound 10 µM
  viability, T/C: 4.47%
Second compound 1 µM, first compound 0.0316 µM
  viability, T/C: 107%
Second compound 1 µM, first compound 0.1 µM
  viability, T/C: 105%
Second compound 1 µM, first compound 0.316 µM
  viability, T/C: 95.8%
Second compound 1 µM, first compound 1 µM
  viability, T/C: 102%
Second compound 1 µM, first compound 3.16 µM
  viability, T/C: 70.5%
Second compound 1 µM, first compound 10 µM
  viability, T/C: 5.01%

## CCN1CCN(Cc2ccc(Nc3ncc(F)c(-c4cc(F)c5nc(C)n(C(C)C)c5c4)n3)nc2)CC1 + CCn1c(-c2cc(N3CCN(C)CC3)cnc2C(C)OC)c2c3cc(ccc31)-c1csc(n1)CC(NC(=O)C1CC1C)C(=O)N1CCCC(N1)C(=O)OCC(C)(C)C2
Second compound 0.000949 µM
  IC50: 830 nM
Second compound 0.003 µM
  IC50: 714 nM
Second compound 0.00949 µM
  IC50: 471 nM
Second compound 0.03 µM
  IC50: 308 nM
Second compound 0.0949 µM
  IC50: 112 nM
Second compound 0.3 µM
  IC50: < 3.16 nM
[1]
  viability, T/C: 95.6%
[2]
  viability, T/C: 114%
[3]
  viability, T/C: 99.2%
[4]
  viability, T/C: 90.4%
[5]
  viability, T/C: 69.9%
[6]
  viability, T/C: 46.1%
[7]
  viability, T/C: 106%
[8]
  viability, T/C: 110%
[9]
  viability, T/C: 96.4%
[10]
  viability, T/C: 87.8%
[11]
  viability, T/C: 66.6%
[12]
  viability, T/C: 43.1%
[13]
  viability, T/C: 102%
[14]
  viability, T/C: 112%
[15]
  viability, T/C: 105%
[16]
  viability, T/C: 100%
[17]
  viability, T/C: 61.4%
[18]
  viability, T/C: 28.4%
[19]
  viability, T/C: 102%
[20]
  viability, T/C: 96.8%
[21]
  viability, T/C: 93.2%
[22]
  viability, T/C: 73.5%
[23]
  viability, T/C: 50.1%
[24]
  viability, T/C: 15.2%
[25]
  viability, T/C: 86.9%
[26]
  viability, T/C: 81%
[27]
  viability, T/C: 81.7%
[28]
  viability, T/C: 54.2%
[29]
  viability, T/C: 10.9%
[30]
  viability, T/C: 13.2%
[31]
  viability, T/C: 48.4%
[32]
  viability, T/C: 46.8%
[33]
  viability, T/C: 40%
[34]
  viability, T/C: 13.3%
[35]
  viability, T/C: 6.94%
[36]
  viability, T/C: 11.1%

## O=C(c1ccc(F)c(F)c1Nc1ccc(I)cc1F)N1CC(O)([C@@H]2CCCCN2)C1 + CCn1c(-c2cc(N3CCN(C)CC3)cnc2C(C)OC)c2c3cc(ccc31)-c1csc(n1)CC(NC(=O)C1CC1C)C(=O)N1CCCC(N1)C(=O)OCC(C)(C)C2
Second compound 0.000949 µM
  IC50: 523 nM
Second compound 0.003 µM
  IC50: 514 nM
Second compound 0.00949 µM
  IC50: 454 nM
Second compound 0.03 µM
  IC50: 447 nM
Second compound 0.0949 µM
  IC50: 72 nM
Second compound 0.3 µM
  IC50: < 3.16 nM
[1]
  viability, T/C: 93%
[2]
  viability, T/C: 105%
[3]
  viability, T/C: 85.6%
[4]
  viability, T/C: 80.9%
[5]
  viability, T/C: 74.8%
[6]
  viability, T/C: 23.1%
[7]
  viability, T/C: 87.8%
[8]
  viability, T/C: 101%
[9]
  viability, T/C: 92%
[10]
  viability, T/C: 76.4%
[11]
  viability, T/C: 76%
[12]
  viability, T/C: 20.3%
[13]
  viability, T/C: 98.4%
[14]
  viability, T/C: 94.7%
[15]
  viability, T/C: 81.4%
[16]
  viability, T/C: 82.6%
[17]
  viability, T/C: 73.6%
[18]
  viability, T/C: 4.71%
[19]
  viability, T/C: 87.4%
[20]
  viability, T/C: 75.7%
[21]
  viability, T/C: 82%
[22]
  viability, T/C: 75.4%
[23]
  viability, T/C: 69.1%
[24]
  viability, T/C: 5.79%
[25]
  viability, T/C: 72.8%
[26]
  viability, T/C: 96.2%
[27]
  viability, T/C: 58.1%
[28]
  viability, T/C: 49.3%
[29]
  viability, T/C: 3.89%
[30]
  viability, T/C: 3.06%
[31]
  viability, T/C: 28.9%
[32]
  viability, T/C: 28.4%
[33]
  viability, T/C: 15.1%
[34]
  viability, T/C: 3.3%
[35]
  viability, T/C: 3.48%
[36]
  viability, T/C: 3.15%
